The text below walks through data of publication PMC3793924, “Targeting Androgen Receptor/Src Complex Impairs the Aggressive Phenotype of Human Fibrosarcoma Cells” (PLoS ONE, 2013).

The test system of one experiment is NIH3T3 cells. As to the kind of experiment: BrdU incorporation in NIH3T3 fibroblasts. To be noted: quiescent NIH3T3 cells, 18 h; EGF 100 ng/ml; R1881 10 nM. It counts as cell-based, mouse. The protocol:
NIH3T3 cells were used. In A, cells were transfected with 3416 or 3424 ARE-Luc constructs with or without hAR-expressing plasmid and then made quiescent as reported in Methods. Cells were left unstimulated or stimulated for 18 h with 10 nM R1881. Luciferase activity was assayed, normalized using beta-gal as an internal control, and expressed as fold induction. Three independent experiments were performed in triplicate. Means and SEM are shown; n represents the number of experiments. […] After in vivo labeling with BrdU (100 μM), BrdU incorporation was analyzed by IF and expressed as % of total cells. Several independent experiments were performed in duplicate and data derived from at least 700 scored cells for each coverslip. Mean and SEM are shown. n represents the number of experiments. […] Quiescent NIH3T3 fibroblasts were used. In C, cells on coverslips were left unstimulated or stimulated for 18 h with the indicated compounds. […] After in vivo pulse with BrdU (100 μM), BrdU incorporation was analyzed by IF and expressed as % of total cells. Several independent experiments were performed in duplicate and the results were derived from at least 500 scored cells for each coverslip. Mean and SEM are shown. n represents the number of experiments. […] The Western blot of MCF-7 cell lysate with the anti-tubulin or the anti-EGFR antibody is shown for comparison. In D, cells were left untreated or treated for 6 h with the indicated compounds. […] Cells were allowed to migrate in collagen pre-coated Trans-well filters. Migrated cells were stained and counted as reported in Methods. Results were derived from several independent experiments, each performed in duplicate. Data are expressed as relative increase. Mean and SEM are shown. n represents the number of experiments. […] (PPTX) Click here for additional data file.
On the technique in general: Incorporation of labelled thymidine or its analogues reports DNA synthesis.

In experiment [1] the test system is HT1080 cells. The experiment in a line: Trans-well migration/invasiveness of HT1080 cells. The class given is cell-based, human. To be noted: HT1080 cells, 10 nM R1881, 6 h, collagen pre-coated Trans-well filters.
Experiment [2] deals with HT1080 cells. As to the kind of experiment: BrdU incorporation (DNA synthesis) in quiescent HT1080 cells. The class given is cell-based, human. To be noted: 18 h, R1881 and DHT 10 nM, EGF 100 ng/ml. The protocol:
Human fibrosarcoma HT1080 cells were used. In A, quiescent cells on coverslips were left un-stimulated or stimulated for 18 h with the indicated compounds. […] After in vivo pulse with BrdU (100 μM; Sigma), BrdU incorporation was analyzed by IF and expressed as % of total nuclei. Several independent experiments were performed in duplicate and the results were derived from at least 400 scored cells for each coverslip. Mean and SEM are shown. n represents the number of experiments. […] In B, xenografts were established in nude male mice as described in Methods. On alternate days, animals were intra-peritoneally injected with vehicle alone (vehicle), or the pure androgen antagonist Casodex (Cx: 0.1 μg/mice; 4µg/Kg body weight), or DHT (DHT: 0,1 μg/mice; 3 μg/Kg body weight) alone. Volumes of HT1080 cell xenografts were measured at the indicated times in two dimensions by a caliper and expressed as tumor mass (mm^3). Mean and SEM are shown. n represents the number of experiments.
Quiescent HT1080 cells were used. […] Casodex (at 10 μM) was used for comparison with the S1 peptide. Upper section in A, Western blot of HT1080 cell lysates with anti-EGFR antibody. […] In B, lysates were immune-precipitated with the anti-Src MAb and Src activity in immune complexes was assayed using acidified enolase, as a substrate. In C, cells on coverslips were left untreated or treated for 18 h with the indicated compounds. After in vivo pulse with BrdU (100 μM), BrdU incorporation was analyzed by IF and expressed as % of total nuclei. Several independent experiments were performed in duplicate and the results were obtained from at least 500 scored cells for each coverslip. Mean and SEM are shown. n represents the number of experiments.

The test system of the next experiment is HT1080 cell xenografts. As to the kind of experiment: HT1080 cell xenografts in nude male mice, tumor mass. It counts as in vivo. Particulars: i.p. on alternate days for 4 weeks, Casodex 0.1 μg/mice (4 µg/Kg), DHT 0,1 μg/mice (3 μg/Kg), six animals per group. The protocol: Figure 1 Casodex inhibits the EGF-triggered DNA synthesis in human fibrosarcoma HT1080 cells and reduces the growth of HT1080 xenografts. Human fibrosarcoma HT1080 cells were used. In A, quiescent cells on coverslips were left un-stimulated or stimulated for 18 h with the indicated compounds. […] After in vivo pulse with BrdU (100 μM; Sigma), BrdU incorporation was analyzed by IF and expressed as % of total nuclei. Several independent experiments were performed in duplicate and the results were derived from at least 400 scored cells for each coverslip. Mean and SEM are shown. n represents the number of experiments. (**) p value< 0,001. […] In B, xenografts were established in nude male mice as described in Methods. […] Volumes of HT1080 cell xenografts were measured at the indicated times in two dimensions by a caliper and expressed as tumor mass (mm^3). […]
HT1080 cells in 50% (v/v) Matrigel solution in phosphate-buffered saline (PBS; pH 7.4) were subcutaneously injected in the dorsal posterior region at 2.5 x 10^6 cells/male athymic mice (CD mice, Charles-River Italia) without hormone priming. […] The tumor volumes of HT1080 cell xenografts were measured at indicated intervals in two dimensions by a caliper and expressed as tumor mass (mm^3). This is calculated according to the formula: a^2 × b × 0.5, where a is the width and b is the length of the tumor. […]

`C[C@]1(O)CC[C@H]2[C@@H]3CCC4=CC(=O)CCC4=C3C=C[C@@]21C` [R1881]: the “BrdU incorporation (DNA synthesis) upon stimulation with the compound alone” value is reported as “does not induce DNA synthesis” in the experiment on NIH3T3 cells and “unable to mediate DNA synthesis” with HT1080 cells [2]. For the same compound, in the experiment on HT1080 cells [1], the “Cell motility upon androgen challenge (Trans-well)” value was “robustly increases cell motility”.

As for `C[C@]12CCC(=O)C[C@@H]1CC[C@@H]1[C@@H]2CC[C@]2(C)[C@@H](O)CC[C@@H]12` [DHT], in the experiment with HT1080 cell xenografts, the “Growth of HT1080 xenografts (tumor mass)” value is “slightly affected this increase”. For the same compound, the “BrdU incorporation (DNA synthesis) upon stimulation with the compound alone” value in the experiment with HT1080 cells [2] is listed as “unable to mediate DNA synthesis”.
